Measured values reported in patent US6413967B1, “Inhibition of novel calcium entry pathway in electrically non-excitable cells acting as an anti-proliferative therapy” (The University of Virginia Patents Foundation, priority 1995, dated 2002).

What was measured:
[1] = system: NVG current in Jurkat cells; assay: perforated patch clamp, non-voltage gated (NVG) current; assay type: cell-based, human; details: membrane potential −60 mV, 300 nM thapsigargin, amiloride 100 μM, MnCl2 300 μM, NiCl2 1 mM, W-7 30 μM, NDGA 10 μM
Protocol: (§1) All recordings were performed using the perforated patch method (Horn et al, J. Gen. Physiol. (1988) 92:145) of the gigaseal patch clamp technique (Hammil et al, Pflugers Arch (1981) 391:85) with microelectrodes of 5-10 megohm series resistance. In all solutions for voltage clamp, K^+ was replaced with Cs^+ to block outward K^+ currents (Fox et al, J. Physiol. (Lond.) (1987) 392:149). The bath solution contained (in mM): NaCl, 155; CsCl, 4.5; CaCl2, 2; MgCl2, 1; D-glucose, 5; HEPES, 10 (pH 7.4 with NaOH). The pipette solution contained (in mM): CsCl, 55; Cesium methanesulfonate, 70; CaCl2, 1; MgCl2, 7; HEPES, 10 (pH 7.3 with NaOH). Nystatin was made as a stock solution of 6 mg/100 μl DMSO, and 2 μl of the stock was added to 1 ml of the pipette solution for use. Both pipette and bath solutions were 290-300 mOsm. Experiments were performed on cells at room temperature using the Axopatch-1D patch clamp (Axon Instruments, Foster City, Calif.) after correction of junction potentials and leak subtraction. Records were low-pass filtered at 500 Hz, and the data were collected, stored and analyzed using the pClamp software program (Axon Instruments). For the non-voltage gated current traces, data is presented either as the tracing from a chart recorder or from the digital data in which the current was measured at 5 second intervals and plotted as individual points.

[2] = system: Ca^2+ entry pathway in Jurkat cells; assay: thapsigargin-stimulated Ca2+ entry measured with Ca2+-sensitive dyes (indo-1, fluo-3); assay type: cell-based, human; details: 300 nM thapsigargin, amiloride 100 μM (fluo-3), Ni^2+ 1 mM, NDGA 10 μM (indo-1)
Protocol: Lymphocytes were suspended in culture medium at 37° C. for 1 h in the presence of 1 μM of the Ca^2+ indicator dye indo-1 /AM. Cells were washed twice in buffer A (140 mM NaCl, 3 mM KCl, 1 mM CaCl2, 1 mM MgCl2, 0.1% D-glucose, 1% FBS, 10 mM HEPES, pH 7.4) and were suspended at a final concentration of 1×10^6 cells/ml in buffer A. The excitation wavelength was 340 nm and emission was monitored at 398 nm in an SLM 8000 spectrofluorometer (SLM/Aminco, Urbana, Ill.), with the temperature maintained at 37° C. Data are plotted as relative fluorescence intensity at 398 nm as a measure of [Ca^2+]i. For FIG. 7, indo-1 emission was monitored at 398 nm and 480 nm and [Ca^2+]i was determined as described previously (Gray et al, J. Immunol (1987) 138:63; Haverstick et al, Mol. Biol. Cell (1993) 4:173).
Jurkat cells were loaded with indo-1/AM as described above. The excitation wavelength was 340 nm and emission was measured at 441 nm. The fluorescence of indo-1 at 441 nm is insensitive to changes in [Ca^2+]i (Sage et al, Biochem. J. (1989) 258:923) and is plotted as relative fluorescence intensity.
Because amiloride interferes with the fluorescence of indo-1 (Wacholtz et al, J. Immunol. (1992) 149:1912), fluo-3 was used to monitor [Ca^2+]i in the presence of amiloride. Jurkat cells were suspended in culture medium at 37° C. for 1 h in the presence of 1 μM fluo-3/AM and 1 mM probenecid to decrease dye leakage (DiVirgilio et al, Methods Cell Biol. (1989) 31:453). After two washes in buffer A, cells were suspended at a concentration of 1×10^6 cells/ml in buffer A with 1 mM probenecid and were maintained in a cuvette at 37° C. The excitation wavelength was 506 nm and the emission was monitored at 526 nm. Data are presented sa relative fluorescence intensity at 526 nm.

[3] = system: VG Ca^2+ current in Jurkat cells; assay: perforated patch clamp, voltage gated (VG) Ca2+ current; assay type: cell-based, human; details: for effect on the VG Ca^2+ current: amiloride 100 μM, MnCl2 300 μM, NiCl2 1 mM, W-7 alone (unstimulated current)
Protocol: as §1

[4] = system: Ca^2+ entry pathway in Jurkat cells; details: previously demonstrated (Haverstick et al 1993); cited from earlier work
Jurkat T cells = assay: Jurkat cell proliferation, tetrazolium dye; assay type: cell-based, human; details: Homo sapiens, Jurkat; incubation 44 to 48 h; read-out: JURKAT prolif IC50
Protocol: (§2) The effect of various drugs on the proliferation of Jurkat T cells, MDA-468 human breast cancer cells and PC3 human prostate cancer cells was determined by incubating the cells with the indicated concentrations of drug for 48 hours. The number of viable cells remaining at the end of the incubation period was evaluated using the procedure outlined in Example 4.
(§3) Cells are plated in triplicate in a 96-well flat-bottomed plate (Jurkat: 5e4 cells/well in RPMI-1640 plus 5% fbs; MDA468: 2.5e4 per well in DMEM plus 5% fbs and 11 μg/ml insulin) in the absence (control) or presence of drug at 3, 10, 30, and 100 μM. An additional control of 100 μM drug in RPMI-1640 plus 5% fbs or DMEM plus 5% fbs and 11 μg/Ml insulin with no cells is included with each run to control for possible drug interactions with the dye. The plate is then placed in a 5% CO2 37° C. incubator for 44 to 48 hours. 20 μl of dye solution containing a tetrazolium dye (3-(4,5-dimethylthiazol-2-yl)-5-(3-carboxymethoxyphenyl)-2-(4-sulfophenyl)-2H-tetrazolium, Owen's reagent) plus coupling reagent (phenazine methosulfate) is added to each well, the plate is returned to the incubator, and the absorbance at 490 nm is read using an ELISA plate reader 3 to 4 h (Jurkat cells) or 2 to 3 h (MDA-468 cells) later. All data are presented as percent of control (no drug addition). With this protocol, it is possible to determine the effect of 5 drugs at 4 concentrations in a single 96-well plate as outlined below: […]

[5] = system: [Ca^2+]i in MDA-468 cells; assay: EGF receptor-stimulated Ca2+ influx in MDA-468 cells; assay type: cell-based; details: Homo sapiens; maximal [Ca^2+]i, Ca^2+ entry triggered by 50 ng/ml EGF
[6] = system: [Ca^2+]i in Jurkat T cells; assay: receptor-stimulated Ca2+ influx in Jurkat T cells (anti-CD3 mAb OKT3); assay type: cell-based, human; details: Homo sapiens, Jurkat; maximal [Ca^2+]i after anti-CD3 mAb OKT3; drug 1 min prior
Protocol: Initially, all drugs are screened using Jurkat T cells incubated with indo-1/AM as outlined below. In the event that there is an effect of the drug on the maximum [Ca^2+]i reached following treatment of the cells with the anti-CD3 mAb […], the drug is evaluated for any effects on the spectral characteristics of indo-1 as outlined in Haverstick and Gray, Mol. Biol. Cell (1993) 4:173. If there is an effect of the drug on the spectral characteristics of indo-1 , the drug is further examined for spectral effects on the combination of fura-red and fluo-3. If there is no effect of the drug on the fura-red/fluo-3 combination, the drug is examined for effects on the maximum [Ca^2+]i reached following OKT3 treatment of cells incubated with 5 μM fura-red and […] as outlined below.
Jurkat cells are incubated in RPMI-1640 plus 5% fbs in the presence of the acetoxymethyl ester of either indo-1 (1 μM) or the combination of fura-red (5 μM) with fluo-3 (1 μM) for one hour at 37° C. Cells are washed three times in buffer A [[…] 4-(2-hydroxyethyl)-1-piperazine ethanesulfonic acid (HEPES), pH 7.4, 3 MM KCl, 1 mM MgCl2, 1 mM CaCl2, 140 mM NaCl, 0.1% glucose] containing 1% fbs and suspended to a final concentration of 1×10^6/ml. Cells are then placed in the 37° C. jacketed cell holder of the SLM 8000C. Antigen receptor engagement is mimicked by the addition of the anti-CD3 monoclonal antibody OKT3 (Gray et al, J. Exp. Med. (1988) 167:1963; Gray et al, J. Immunol. 142:1631). The effect of drug added prior to receptor stimulation or at the plateau phase of Ca^2+ entry is determined as follows:
Prior drug: 10 or 30 μM drug @ 30 seconds, 1 μg/ml OKT3 at 90 seconds
Post drug: 1 μg/ml OKT3 at 30 second, 10 or 30 μM drug @ 120 seconds

[7] = system: MDA-468 human breast cancer cells; assay: MDA-468 cell proliferation, tetrazolium dye; assay type: cell-based; details: Homo sapiens; incubation 44 to 48 h; read-out: MDA-468 prolif IC50
Protocol: as §2, §3

[8] = system: human prostate cancer cell line PC3; assay: PC3 cell proliferation, tetrazolium dye; assay type: cell-based; details: PC-3, 5×10^4 PC3 cells, 48 hours

Row | Structure (SMILES) | effect on the thapsigargin-induced NVG current [1] | effect on thapsigargin-stimulated Ca^2+ entry [2] | effect on the VG Ca^2+ current [3] | effect on Ca^2+ influx induced by thapsigargin, by Ca^2+-sensitive dyes [4] | effect on thapsigargin-mediated augmentation of the VG Ca^2+ current ([3]; drug added before 300 nM thapsigargin, W-7 30 μM) | effect on the thapsigargin-induced NVG current ([1]; listed as Amiloride) | IC50 (Jurkat T cells) [µM] | IC50 [5] [µM] | IC50 [6] [µM] | IC50 [7] [µM] | IC50 [8] [µM]
1 | [Cl][Ni][Cl] [Ni^2+, NiCl2] | blocked | blocked Ca^2+ entry | eliminated the VG Ca^2+ current |  |  |  |  |  |  |  | 
2 | NCCCCCCNS(=O)(=O)c1cccc2c(Cl)cccc12 [W-7, N-(6-aminohexyl)-5-chloro-1-naphthalenesulfonamide] | not affected |  | not affected | eliminates | blocked the augmentation |  |  |  |  |  | 
3 | N=C(N)NC(=O)c1nc(Cl)c(N)nc1N [amiloride] | virtually eliminated | no effect | not blocked |  |  | completely inhibited |  |  |  |  | 
4 | CN(C)CCCN1c2ccccc2Sc2ccc(Cl)cc21 [chloropromazine, 2-chloro-10-[3-dimethylaminopropyl]-phenothiazine] |  |  |  |  |  |  | 90 | 5 | 25 | 20 | 
5 | CC(CN1c2ccccc2Sc2ccccc21)N(C)C (stereo not drawn) [promethazine, N,N,α-trimethyl-10H -phenothiazine-10-ethanamine] |  |  |  |  |  |  | 3.5 | 105 | 65 | 30 | ~40
